Measured values from PubChem BioAssay AID248 (DTP/NCI, 2004).
Values joined by “and” are separate entries in the source; they are usually repeats but may differ in a detail not shown here. Identical values can stand only once. Inconclusive results and toxic doses are left out. Cut-off read from the data, not from the text of the source: active = T/C of 150% or more; inactive = T/C below 125%.

Tested on: L1210 leukemia ip in BDF1 mice, survival T/C
Assay: NCI In Vivo Anticancer Drug Screen. Data for tumor model L1210 Leukemia (intraperitoneal) in B6D2F1 (BDF1) mice
Details: endpoint: mean survival time, higher = longer survival
Procedure, shortened: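 Read-out is survival time, reported as the treated-group measurement over the vehicle-control measurement.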

[1] = dose: 100.0 mg/kg/injection, schedule: Q01DX001 (ip), vehicle: saline
[2] = dose: 200.0 mg/kg/injection, schedule: Q01DX001 (ip), vehicle: saline
[3] = dose: 400.0 mg/kg/injection, schedule: Q01DX001 (ip), vehicle: saline
[4] = dose: 100.0 mg/kg/injection, schedule: Q01DX009 (ip), vehicle: Klucel (hydroxypropylcellulose) (HPC)
[5] = dose: 100.0 mg/kg/injection, schedule: Q04DX003 (ip), vehicle: Klucel (hydroxypropylcellulose) (HPC)
[6] = dose: 200.0 mg/kg/injection, schedule: Q01DX009 (ip), vehicle: Klucel (hydroxypropylcellulose) (HPC)
[7] = dose: 200.0 mg/kg/injection, schedule: Q04DX003 (ip), vehicle: Klucel (hydroxypropylcellulose) (HPC)
[8] = dose: 400.0 mg/kg/injection, schedule: Q01DX009 (ip), vehicle: Klucel (hydroxypropylcellulose) (HPC)
[9] = dose: 400.0 mg/kg/injection, schedule: Q04DX003 (ip), vehicle: Klucel (hydroxypropylcellulose) (HPC)
[10] = dose: 50.0 mg/kg/injection, schedule: Q01DX001 (ip), vehicle: saline
[11] = dose: 100.0 mg/kg/injection, schedule: Q01DX009 (ip), vehicle: saline with Tween-80
[12] = dose: 100.0 mg/kg/injection, schedule: Q04DX003 (ip), vehicle: saline with Tween-80
[13] = dose: 200.0 mg/kg/injection, schedule: Q01DX009 (ip), vehicle: saline with Tween-80
[14] = dose: 400.0 mg/kg/injection, schedule: Q04DX003 (ip), vehicle: saline with Tween-80
[15] = dose: 50.0 mg/kg/injection, schedule: Q01DX009 (ip), vehicle: saline with Tween-80
[16] = dose: 100.0 mg/kg/injection, schedule: Q01DX001 (ip), vehicle: carboxymethylcellulose (CMC)
[17] = dose: 200.0 mg/kg/injection, schedule: Q01DX001 (ip), vehicle: carboxymethylcellulose (CMC)
[18] = dose: 400.0 mg/kg/injection, schedule: Q01DX001 (ip), vehicle: carboxymethylcellulose (CMC)

Measured: T/C

Nc1ccc2ccccc2c1N=Nc1ccc(C(O)C(N)CO)cc1 (stereo unspecified)
inactive: dose: 6.25 mg/kg/injection, schedule: Q01DX009 (ip), vehicle: saline 117 % of control | dose: 12.5 mg/kg/injection, schedule: Q01DX009 (ip), vehicle: saline 98 % of control | dose: 25.0 mg/kg/injection, schedule: Q01DX009 (ip), vehicle: saline 96 % of control

CC(=O)CC(=O)Nc1ccc(Cc2ccc(Br)cc2)cc1
inactive: [1] 96 % of control | [2] 95 % of control | [3] 91 % of control

CN1CCc2ccccc2C1Cc1cc(OCc2ccccc2)ccc1N (stereo unspecified)
inactive: dose: 10.0 mg/kg/injection, schedule: Q01DX001 (ip), vehicle: carboxymethylcellulose (CMC) 89 % of control | dose: 20.0 mg/kg/injection, schedule: Q01DX001 (ip), vehicle: carboxymethylcellulose (CMC) 95 % of control | dose: 40.0 mg/kg/injection, schedule: Q01DX001 (ip), vehicle: carboxymethylcellulose (CMC) 93 % of control | dose: 80.0 mg/kg/injection, schedule: Q01DX001 (ip), vehicle: carboxymethylcellulose (CMC) 98 % of control

CC(C#N)(/C=C/c1ccccc1)Nc1ccccc1N (stereo unspecified)
inactive: [4] 95 % of control | [5] 94 % of control | [6] 95 % of control | [7] 98 % of control | [8] 96 % of control | [9] 93 % of control

COc1ccc(CN2CCCN(Cc3ccc(OC)cc3OC)C2c2ccccc2O)c(OC)c1
inactive: [10] 97 % of control | [1] 92 % of control | [2] 90 % of control | [3] 101 % of control

Cc1c(F)cc(I)cc1[N+](=O)[O-]
inactive: dose: 100.0 mg/kg/injection, schedule: Q01DX001 (ip), vehicle: acetone 100 % of control | [11] 103 % of control | [12] 100 % of control | dose: 200.0 mg/kg/injection, schedule: Q01DX001 (ip), vehicle: acetone 95 % of control | [13] 105 % of control | dose: 200.0 mg/kg/injection, schedule: Q04DX003 (ip), vehicle: saline with Tween-80 100 % of control | dose: 400.0 mg/kg/injection, schedule: Q01DX001 (ip), vehicle: acetone 97 % of control | dose: 400.0 mg/kg/injection, schedule: Q01DX009 (ip), vehicle: saline with Tween-80 103 % of control | [14] 93 % of control

CCOC(=O)C(C#N)C1c2ccccc2Nc2ccccc21 (stereo unspecified)
inactive: [15] 98 % of control | [11] 95 % of control | [13] 91 % of control

Nc1ccc([N+](=O)[O-])c(-c2ccccc2)c1[N+](=O)[O-]
inactive: [16] 91 % of control | [17] 91 % of control | [18] 91 % of control

CN(C)CC/C=C1\c2ccccc2C(C)(C)c2ccc(Cl)cc21
inactive: dose: 2.0 mg/kg/injection, schedule: Q01DX015 (ip), vehicle: carboxymethylcellulose (CMC) 97 % of control | dose: 4.0 mg/kg/injection, schedule: Q01DX015 (ip), vehicle: carboxymethylcellulose (CMC) 96 % of control | dose: 8.0 mg/kg/injection, schedule: Q01DX015 (ip), vehicle: carboxymethylcellulose (CMC) 92 % of control | dose: 12.5 mg/kg/injection, schedule: Q01DX009 (ip), vehicle: acetone 86 % of control | dose: 16.0 mg/kg/injection, schedule: Q01DX015 (ip), vehicle: carboxymethylcellulose (CMC) 102 % of control and 91 % of control | dose: 25.0 mg/kg/injection, schedule: Q01DX009 (ip), vehicle: acetone 94 % of control | dose: 25.0 mg/kg/injection, schedule: Q04DX003 (ip), vehicle: saline 96 % of control | dose: 32.0 mg/kg/injection, schedule: Q01DX015 (ip), vehicle: carboxymethylcellulose (CMC) 98 % of control | dose: 50.0 mg/kg/injection, schedule: Q04DX003 (ip), vehicle: saline 91 % of control | [1] 87 % of control

COc1ccc(OC)c(NC(=O)Nc2cccc(C(F)(F)F)c2)c1
inactive: dose: 25.0 mg/kg/injection, schedule: Q01DX009 (ip), vehicle: carboxymethylcellulose (CMC) 97 % of control and 87 % of control | dose: 50.0 mg/kg/injection, schedule: Q01DX009 (ip), vehicle: carboxymethylcellulose (CMC) 112 % of control and 88 % of control | [16] 103 % of control and 107 % of control | dose: 100.0 mg/kg/injection, schedule: Q01DX009 (ip), vehicle: carboxymethylcellulose (CMC) 87 % of control | dose: 100.0 mg/kg/injection, schedule: Q04DX002 (ip), vehicle: carboxymethylcellulose (CMC) 95 % of control and 89 % of control | dose: 100.0 mg/kg/injection, schedule: Q04DX003 (ip), vehicle: carboxymethylcellulose (CMC) 103 % of control and 87 % of control | [17] 96 % of control and 89 % of control | dose: 200.0 mg/kg/injection, schedule: Q04DX002 (ip), vehicle: carboxymethylcellulose (CMC) 92 % of control and 99 % of control | dose: 200.0 mg/kg/injection, schedule: Q04DX003 (ip), vehicle: carboxymethylcellulose (CMC) 93 % of control and 87 % of control | [18] 94 % of control and 100 % of control | dose: 400.0 mg/kg/injection, schedule: Q01DX009 (ip), vehicle: carboxymethylcellulose (CMC) 86 % of control | dose: 400.0 mg/kg/injection, schedule: Q04DX002 (ip), vehicle: carboxymethylcellulose (CMC) 86 % of control | dose: 400.0 mg/kg/injection, schedule: Q04DX003 (ip), vehicle: carboxymethylcellulose (CMC) 90 % of control

CC1CCCC[N-]1.CC1CCCC[N-]1.N#C[S-].N#C[S-].[Cu] (stereo unspecified)
inactive: dose: 5.0 mg/kg/injection, schedule: Q01DX001 (ip), vehicle: saline 94 % of control | dose: 10.0 mg/kg/injection, schedule: Q01DX001 (ip), vehicle: saline 86 % of control | dose: 20.0 mg/kg/injection, schedule: Q01DX001 (ip), vehicle: saline 91 % of control | dose: 40.0 mg/kg/injection, schedule: Q01DX001 (ip), vehicle: saline 100 % of control

COC(=O)/C(=C/c1ccccc1)CBr
inactive: [15] 94 % of control | [11] 102 % of control

O=C(O)c1ccc(OCC(=O)c2ccccc2)cc1
inactive: [11] 98 % of control | [13] 89 % of control

CC(NC(=O)OCc1ccccc1)C(=O)NC(Cc1ccccc1)C(=O)OCc1ccccc1 (stereo unspecified)
inactive: [12] 95 % of control | [14] 91 % of control

CCCC(C)(CC)C(=O)O (stereo unspecified)
inactive: dose: 75.0 mg/kg/injection, schedule: Q01DX001 (ip), vehicle: acetone 108 % of control | dose: 150.0 mg/kg/injection, schedule: Q01DX001 (ip), vehicle: acetone 101 % of control | dose: 300.0 mg/kg/injection, schedule: Q01DX001 (ip), vehicle: acetone 98 % of control

C[n+]1cccc(CNC(=O)COc2ccc(Cl)c(Cl)c2)c1
inactive: dose: 25.0 mg/kg/injection, schedule: Q01DX001 (ip), vehicle: saline 106 % of control | [10] 103 % of control | [1] 97 % of control and 109 % of control

CCOC(=O)C1(C(=O)OCC)C(C)CC(O)N1C(=O)c1cc2c(cc1[N+](=O)[O-])OCO2 (stereo unspecified)
inactive: dose: 25.0 mg/kg/injection, schedule: Q04DX003 (ip), vehicle: Klucel (hydroxypropylcellulose) (HPC) 94 % of control | dose: 50.0 mg/kg/injection, schedule: Q04DX003 (ip), vehicle: Klucel (hydroxypropylcellulose) (HPC) 94 % of control | [5] 89 % of control

CCOC(=O)CNCc1ccc(Cl)c(Cl)c1
inactive: dose: 50.0 mg/kg/injection, schedule: Q04DX003 (ip), vehicle: water 106 % of control | dose: 100.0 mg/kg/injection, schedule: Q04DX003 (ip), vehicle: water 95 % of control and 106 % of control | dose: 200.0 mg/kg/injection, schedule: Q04DX003 (ip), vehicle: water 87 % of control and 92 % of control

Cc1cc(C)c2ccc(SC#N)c-2c(C)c1
inactive: [16] 106 % of control | [17] 95 % of control | [18] 101 % of control

O=C(O)COc1ccc(Cl)cc1C(=O)O
inactive: [5] 96 % of control | [7] 104 % of control | [9] 101 % of control

Nc1ccccc1-c1ccccc1N
inactive: dose: 25.0 mg/kg/injection, schedule: Q04DX002 (ip), vehicle: saline 100 % of control | dose: 50.0 mg/kg/injection, schedule: Q04DX002 (ip), vehicle: saline 98 % of control | [4] 96 % of control | dose: 100.0 mg/kg/injection, schedule: Q04DX002 (ip), vehicle: saline 114 % of control | [5] 94 % of control | [6] 102 % of control | [7] 91 % of control | [8] 93 % of control | [9] 104 % of control

CN(C)c1ccc(C=Nc2ccc3c(c2)Cc2ccccc2-3)cc1
inactive: [4] 97 % of control | [5] 94 % of control | [6] 95 % of control | [7] 107 % of control | [8] 90 % of control | [9] 97 % of control
